Experimental data as given in patent US9890152B2 (Genentech, Inc., priority 2012, dated 2018).
Structures can show the parent of a compound that is named as a salt.

biological target: T1, EGFR del746-750 T790M (Homo sapiens, UniProt P00533, DEL746-750/T790M); experiment: EGFR del746-750 T790M biochemical assay (Caliper mobility shift); conditions: 5 μM ATP, 30 min, room temperature; apparent Ki (Morrison) converted by Cheng-Prusoff, Km of ATP 2.1 μM; read-out: EGFR(T790M/d746-750) Ki
T1 construct: purchased Carna Biosciences 08-528
T1 sequence (P00533 with tags, fused parts or gaps DEL746-750/T790M limits assumed): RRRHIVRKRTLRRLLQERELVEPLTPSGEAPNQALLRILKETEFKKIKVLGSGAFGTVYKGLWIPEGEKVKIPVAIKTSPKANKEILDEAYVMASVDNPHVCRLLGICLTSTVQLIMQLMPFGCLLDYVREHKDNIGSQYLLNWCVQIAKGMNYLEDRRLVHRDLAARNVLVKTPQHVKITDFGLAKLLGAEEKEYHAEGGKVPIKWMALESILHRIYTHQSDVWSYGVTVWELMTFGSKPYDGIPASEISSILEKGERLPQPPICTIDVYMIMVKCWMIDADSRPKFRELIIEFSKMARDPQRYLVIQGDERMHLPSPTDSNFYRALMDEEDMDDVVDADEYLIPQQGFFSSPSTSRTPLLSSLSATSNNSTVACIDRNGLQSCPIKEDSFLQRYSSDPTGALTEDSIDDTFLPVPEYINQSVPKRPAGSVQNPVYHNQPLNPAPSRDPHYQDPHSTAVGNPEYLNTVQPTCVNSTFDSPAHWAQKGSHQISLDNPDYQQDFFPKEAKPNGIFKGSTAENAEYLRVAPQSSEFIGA

| Ki | SMILES |
| --- | --- |
| 0.222 µM | CO[C@H]1CCN(c2nccc(Nc3cc4c(cn3)nc(C)n4C(C)C)n2)C[C@@H]1F (racemic) [Example 525, (±)-[2-((trans)-3-Fluoro-4-methoxypiperidin-1-yl)pyrimidin-4-yl]-(1-isopropyl-2-methyl-1H-imidazo[4,5-c]pyridin-6-yl)amine] |
| 0.0575 µM | Cc1nc2cnc(Nc3ccnc(N4CC[C@H](F)C4)n3)cc2n1C(C)C [Example 592, [2-((S)-3-Fluoropyrrolidin-1-yl)pyrimidin-4-yl]-(1-isopropyl-2-methyl-1H-imidazo[4,5-c]pyridin-6-yl)amine] |
| 0.736 µM | CC(C)n1c(CO)nc2cnc(Nc3ccnc(N4C[C@@H]5C[C@H]4CO5)n3)cc21 [Example 691] |
| 0.0393 µM | CO[C@@H]1CCN(c2nccc(Nc3cc4c(cn3)nc([C@@H](C)O)n4C(C)C)n2)C[C@@H]1F [Example 659] |
| 0.00335 µM | CCC(C)n1cc(C(=O)NCC(F)(F)F)c2cnc(Nc3ccnc(-c4cnn(S(=O)(=O)C5CC5)c4)n3)cc21 (stereo not shown) [Example 704] |
| 0.00359 µM | C[C@H](n1c([C@@H](C)O)nc2cnc(Nc3ccnc(N4CC[C@@H](O)[C@@H](F)C4)n3)cc21)C(F)(F)F [Example 291, (3S,4R)-3-Fluoro-1-{4-[2-((R)-1-hydroxyethyl)-1-((S)-2,2,2-trifluoro-1-methylethyl)-1H-imidazo[4,5-c]pyridin-6-ylamino]pyrimidin-2-yl}-piperidin-4-ol] |
| 0.015 µM | CC(n1cc(C(=O)NC2CCOCC2)c2cnc(Nc3ccnc(N4CC[C@@H](O)[C@@H](F)C4)n3)cc21)C(F)(F)F (single isomer, unassigned) [Example 639] |
| 0.524 µM | Cc1nc2cnc(Nc3ccnc(-n4cnc(S(C)(=O)=O)c4)n3)cc2n1C(C)C [Example 337, 1-Isopropyl-2-methyl-N-(2-(4-(methylsulfonyl)-1H-imidazol-1-yl)pyrimidin-4-yl)-1H-imidazo[4,5-c]pyridin-6-amine] |
| 0.0297 µM | Cc1cc(-c2nccc(Nc3cc4c(cn3)nc(C)n4C(C)C)n2)sn1 [Example 360, 1-Isopropyl-2-methyl-N-(2-(3-methylisothiazol-5-yl)pyrimidin-4-yl)-1H-imidazo[4,5-c]pyridin-6-amine] |
| 0.00334 µM | Cc1nc2cnc(Nc3ccnc(-c4cnc(N)s4)n3)cc2n1C(C)C [Example 614, [2-(2-Aminothiazol-5-yl)pyrimidin-4-yl]-(1-isopropyl-2-methyl-1H-imidazo[4,5-c]pyridin-6-yl)amine] |
| 0.00283 µM | CC(C)n1cc(-c2cnn(CC(N)=O)c2)c2cnc(Nc3ccnc(-c4cnn(S(=O)(=O)C5CC5)c4)n3)cc21 [Example 331, 2-(4-(6-((2-(1-(Cyclopropylsulfonyl)-1H-pyrazol-4-yl)pyrimidin-4-yl)amino)-1-isopropyl-1H-pyrrolo[3,2-c]pyridin-3-yl)-1H-pyrazol-1-yl)acetamide] |
| 0.0216 µM | Cc1nc2cnc(Nc3ccnc(N4CCC(O)C(F)(F)C4)n3)cc2n1C(C)C (racemic) [Example 507, (±)-3,3-Difluoro-1-(4-((1-isopropyl-2-methyl-1H-imidazo[4,5-c]pyridin-6-yl)amino)pyrimidin-2-yl)piperidin-4-ol] |
| 0.00182 µM | Cc1cn(CCO)nc1-c1cn(C(C)C)c2cc(Nc3ccnc(-c4cnn(S(=O)(=O)C5CC5)c4)n3)ncc12 [Example 253, 2-(3-(6-(2-(1-(Cyclopropylsulfonyl)-1H-pyrazol-4-yl)pyrimidin-4-ylamino)-1-isopropyl-1H-pyrrolo[3,2-c]pyridin-3-yl)-4-methyl-1H-pyrazol-1-yl)ethanol] |
| 0.234 µM | CC(C)n1c(CO)nc2cnc(Nc3ccnc(N4CCC(O)(C(F)(F)F)CC4)n3)cc21 [Example 669] |
| 0.117 µM | Cc1nc2cnc(Nc3ccnc(N4CCC5(CC4)OCCO5)n3)cc2n1C(C)C [Example 506, N-(2-(1,4-Dioxa-8-azaspiro[4.5]decan-8-yl)pyrimidin-4-yl)-1-isopropyl-2-methyl-1H-imidazo[4,5-c]pyridin-6-amine] |
| 0.0149 µM | CCC(C)n1cc(C(=O)NC2CCOCC2)c2cnc(Nc3ccnc(N4CCC(C)(O)CC4)n3)cc21 (racemic) [Example 638, 1-(sec-butyl)-6-((2-(4-hydroxy-4-methylpiperidin-1-yl)pyrimidin-4-yl)amino)-N-(tetrahydro-2H-pyran-4-yl)-1H-pyrrolo[3,2-c]pyridine-3-carboxamide] |
| 0.746 µM | COC[C@H](C)n1c(C)nc2cnc(Nc3ccnc(N4CCC(OC)CC4)n3)cc21 [Example 490, [1-((S)-2-Methoxy-1-methylethyl)-2-methyl-1H-imidazo [4,5-c]pyridin-6-yl]-[2-(4-methoxypiperidin-1-yl)pyrimidin-4-yl]amine] |
| 0.1 µM | CCN1CCN(C(=O)c2cn(C(C)C)c3cc(Nc4ccnc(N5CCC(OC)CC5)n4)ncc23)CC1 [Example 122, (4-ethylpiperazin-1-yl)(1-isopropyl-6-((2-(4-methoxypiperidin-1-yl)pyrimidin-4-yl)amino)-1H-pyrrolo[3,2-c]pyridin-3-yl)methanone] |
| 0.189 µM | Cc1nc2cnc(Nc3ccnc(N4CC[C@H](O)C4)n3)cc2n1C(C)C [Example 681] |

| Ki | SMILES |
| --- | --- |
| 0.143 µM | Cc1nc2cnc(Nc3ccnc(N4CCC(OC(F)F)CC4)n3)cc2n1C(C)C [Example 549, [2-(4-Difluoromethoxypiperidin-1-yl)pyrimidin-4-yl]-(1-isopropyl-2-methyl-1H-imidazo[4,5-c]pyridin-6-yl)amine] |
| 0.0101 µM | COC1CCN(c2nccc(Nc3cc4c(cn3)c(C(=O)NCCn3ccnc3)cn4C(C)C)n2)CC1 [Example 63, N-(2-(1H-Imidazol-1-yl)ethyl)-1-isopropyl-6-(2-(4-methoxypiperidin-1-yl)pyrimidin-4-ylamino)-1H-pyrrolo[3,2-c]pyridine-3-carboxamide] |
| 0.21 µM | CC(C)n1c(CO)nc2cnc(Nc3ccnc(N4CC[C@@](O)(C5CC5)[C@H](F)C4)n3)cc21 (racemic) [Example 633, (3RS,4RS)-4-cyclopropyl-3-fluoro-1-(4-((2-(hydroxymethyl)-1-isopropyl-1H-imidazo[4,5-c]pyridin-6-yl)amino)pyrimidin-2-yl)piperidin-4-ol] |
| 0.00687 µM | COCc1nc2cnc(Nc3ccnc(-c4cnn(S(=O)(=O)C5CC5)c4)n3)cc2n1C(C)C [Example 279, [2-(1-Cyclopropanesulfonyl-1H-pyrazol-4-yl)-pyrimidin-4-yl]-(1-isopropyl-2-methoxymethyl-1H-imidazo[4,5-c]pyridin-6-yl)amine] |
| 0.0144 µM | CC(n1cc(C(=O)NC2CCOCC2)c2cnc(Nc3ccnc(N4CCC(C)(O)CC4)n3)cc21)C(F)(F)F (stereo not shown) [Example 636, 6-(2-(4-Hydroxy-4-methylpiperidin-1-yl)pyrimidin-4-ylamino)-N-(tetrahydro-2H-pyran-4-yl)-1-(1,1,1-trifluoropropan-2-yl)-1H-pyrrolo[3,2-c]pyridine-3-carboxamide] |
| 0.14 µM | CC(C)n1c(CO)nc2cnc(Nc3ccnc(N4CC5CC4C5)n3)cc21 [Example 692] |
| 0.00486 µM | COC1CCN(c2nccc(Nc3cc4c(cn3)c(-c3cnn(CC(N)=O)c3)cn4C(C)C)n2)CC1 [Example 410, 2-(4-(1-isopropyl-6-((2-(4-methoxypiperidin-1-yl)pyrimidin-4-yl)amino)-1H-pyrrolo[3,2-c]pyridin-3-yl)-1H-pyrazol-1-yl)acetamide] |
| 0.0433 µM | COC1CCN(c2nccc(Nc3cc4c(cn3)nc(C)n4C(C)C)n2)CC1(F)F (racemic) [Example 528, (±)-[2-(3,3-Difluoro-4-methoxypiperidin-1-yl)pyrimidin-4-yl](1-isopropyl-2-methyl-1H-imidazo[4,5-c]pyridin-6-yl)amine] |
| 0.169 µM | CC(C)n1c(CO)nc2cnc(Nc3ccnc(N4CCC(C)(O)CC4)n3)cc21 [Example 418, 1-(4-((2-(hydroxymethyl)-1-isopropyl-1H-imidazo[4,5-c]pyridin-6-yl)amino)pyrimidin-2-yl)-4-methylpiperidin-4-ol] |
| 0.00702 µM | CC1CC1n1c(CO)nc2cnc(Nc3ccnc(-c4cnn(S(=O)(=O)C5CC5)c4)n3)cc21 (stereo not shown) [Example 698] |
| 0.0169 µM | CC1CCC(n2c(CO)nc3cnc(Nc4ccnc(-c5cnn(S(=O)(=O)C6CC6)c5)n4)cc32)C1 (stereo not shown) [Example 697] |
| 0.519 µM | COC1CCN(c2nccc(Nc3cc4c(cn3)nc3n4C(C)(C)CO3)n2)CC1 [Example 532, N-(2-(4-methoxypiperidin-1-yl)pyrimidin-4-yl)-3,3-dimethyl-2,3-dihydrooxazolo[3′,2′:1,2]imidazo [4,5-c]pyridin-6-amine] |
| 0.0555 µM | CC(C)n1cnc2cnc(Nc3ccnc(N4CCC5(CCCO5)CC4)n3)cc21 [Example 141, (1-Isopropyl-1H-imidazo[4,5-c]pyridin-6-yl)-[2-(1-oxa-8-azaspiro[4.5]dec-8-yl)pyrimidin-4-yl]amine formate salt] |
| 0.00111 µM | CC(C)n1cc(C(=O)NC2COC2)c2cnc(Nc3ccnc(-c4cnn(S(=O)(=O)C5CC5)c4)n3)cc21 [Example 386, 6-((2-(1-(cyclopropylsulfonyl)-1H-pyrazol-4-yl)pyrimidin-4-yl)amino)-1-isopropyl-N-(oxetan-3-yl)-1H-pyrrolo[3,2-c]pyridine-3-carboxamide] |
| 0.0205 µM | Cc1cn[nH]c1-c1cn(C(C)C)c2cc(Nc3ccnc(N4CCC(O)C(C)(C)C4)n3)ncc12 (stereo not shown) [Example 347, 1-(4-((1-Isopropyl-3-(4-methyl-1H-pyrazol-5-yl)-1H-pyrrolo[3,2-c]pyridin-6-yl)amino)pyrimidin-2-yl)-3,3-dimethylpiperidin-4-ol] |
| 0.9 µM | CC(C)n1c(CO)nc2cnc(Nc3ccnc(N4CCC(S(C)(=O)=O)CC4)n3)cc21 [Example 661] |
| 0.00568 µM | CC(C)n1cc(C(=O)NC2CCOCC2)c2cnc(Nc3ccnc(NCC(C)(C)S(C)(=O)=O)n3)cc21 [Example 664] |
| 0.0035 µM | Cc1nc2cnc(Nc3ccnc(-c4cnn(S(C)(=O)=O)c4)n3)cc2n1C(C)C [Example 91, 1-isopropyl-2-methyl-N-(2-(1-(methylsulfonyl)-1H-pyrazol-4-yl)pyrimidin-4-yl)-1H-imidazo[4,5-c]pyridin-6-amine] |
